Data reported in patent US12503438B2, “Compounds for the treatment of kinase-dependent disorders” (Exelixis, Inc., priority 2019, dated 2025).

How the values were obtained:
Mer = target: T1, Mer (Homo sapiens, UniProt Q12866); assay: Mer autophosphorylation ELISA in transient transfected 293A cells; assay type: cell-based; details: cellular activity; MERTK-transfected 293A cells, phospho-Mer ELISA
T1 construct: host or cells: 293A cells (Thermo Fisher #R70507)
T1 sequence (Q12866 21-999): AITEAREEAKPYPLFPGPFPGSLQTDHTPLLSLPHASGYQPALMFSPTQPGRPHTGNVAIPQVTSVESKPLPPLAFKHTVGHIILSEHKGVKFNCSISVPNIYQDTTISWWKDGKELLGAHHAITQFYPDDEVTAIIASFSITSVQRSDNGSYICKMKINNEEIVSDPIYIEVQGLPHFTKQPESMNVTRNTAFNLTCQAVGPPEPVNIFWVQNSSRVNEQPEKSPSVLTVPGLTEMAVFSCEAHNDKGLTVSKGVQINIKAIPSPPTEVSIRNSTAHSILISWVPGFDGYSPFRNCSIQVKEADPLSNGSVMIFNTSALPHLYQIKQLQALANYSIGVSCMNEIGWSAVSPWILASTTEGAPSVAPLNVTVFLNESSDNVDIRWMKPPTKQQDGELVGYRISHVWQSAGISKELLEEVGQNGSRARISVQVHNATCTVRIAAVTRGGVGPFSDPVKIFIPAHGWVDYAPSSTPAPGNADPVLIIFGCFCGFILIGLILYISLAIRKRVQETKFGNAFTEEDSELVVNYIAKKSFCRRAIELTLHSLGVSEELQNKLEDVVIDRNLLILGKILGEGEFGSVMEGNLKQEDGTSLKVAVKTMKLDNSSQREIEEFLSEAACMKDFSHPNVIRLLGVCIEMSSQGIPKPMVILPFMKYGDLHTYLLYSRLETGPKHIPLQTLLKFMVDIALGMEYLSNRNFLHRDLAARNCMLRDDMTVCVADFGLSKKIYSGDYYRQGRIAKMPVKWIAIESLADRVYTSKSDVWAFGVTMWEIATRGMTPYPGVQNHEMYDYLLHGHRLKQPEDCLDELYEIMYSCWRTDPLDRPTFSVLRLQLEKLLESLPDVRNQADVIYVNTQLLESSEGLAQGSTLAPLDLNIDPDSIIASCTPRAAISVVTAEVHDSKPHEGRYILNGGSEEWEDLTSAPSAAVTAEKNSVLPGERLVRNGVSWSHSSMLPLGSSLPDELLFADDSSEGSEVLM
How it was run: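 293A cells transiently transfected with human MERTK DNA, then treated 1 h with 8-point compound dilutions in serum-free medium (0.3% DMSO). Phospho-Mer in lysates quantified by sandwich ELISA against phospho-Mer standard; normalised to DMSO (100%) and reference inhibitor (0%), IC50 from 4-parameter logistic fit.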

Met = Met (Homo sapiens, UniProt P08581); assay: Human Met kinase assay (33P-phosphoryl transfer radiometric, KinaseProfiler); design: Human Met (residues R974-S1390 with A1209G and V1290L, 3.4 nM); purchased Eurofins Pharma Discovery Services UK Limited (KinaseProfiler service); details: biochemical activity; 10 μM ATP; read-out: c-Met IC50
Chain of Met (P08581 974-1390): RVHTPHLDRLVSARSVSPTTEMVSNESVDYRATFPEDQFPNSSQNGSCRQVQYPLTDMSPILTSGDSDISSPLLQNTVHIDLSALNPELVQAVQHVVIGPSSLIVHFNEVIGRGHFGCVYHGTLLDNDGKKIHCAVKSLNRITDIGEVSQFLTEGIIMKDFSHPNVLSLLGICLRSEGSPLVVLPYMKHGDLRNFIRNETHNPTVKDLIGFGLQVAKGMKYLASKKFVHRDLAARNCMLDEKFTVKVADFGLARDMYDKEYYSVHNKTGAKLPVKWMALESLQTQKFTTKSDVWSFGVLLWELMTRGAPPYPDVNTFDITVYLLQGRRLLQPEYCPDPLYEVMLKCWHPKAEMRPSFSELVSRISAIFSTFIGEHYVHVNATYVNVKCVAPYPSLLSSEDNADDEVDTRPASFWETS

| Structure (SMILES) | IC50 (Mer) [nM] | IC50 (Met) [nM] |
| --- | --- | --- |
| CNC(=O)c1cc2c(Oc3ccc(NC(=O)C4(C(=O)Nc5ccc(F)cc5)CC4)cc3)ccnc2cc1-c1cnn(C)c1 [Compound 77, 1-N′-(4-Fluorophenyl)-1-N-[4-[6-(methylcarbamoyl)-7-(1-methylpyrazol-4-yl)quinolin-4-yl]oxyphenyl]cyclopropane-1,1-dicarboxamide] | 10 to 100 | ≤ 10 |
| O=C(Nc1ccc(F)cc1)C1(C(=O)Nc2ccc(Oc3ccnc4cc(-c5cnn(C(F)(F)F)c5)ccc34)cc2)CC1 [Compound 12, 1-N′-(4-Fluorophenyl)-1-N-[4-[7-[1-(trifluoromethyl)pyrazol-4-yl]quinolin-4-yl]oxyphenyl]cyclopropane-1,1-dicarboxamide] | 100 to 300 | 10 to 100 |
| O=C(Nc1ccc(F)cc1)C1(C(=O)Nc2ccc(Oc3ccnc4cc(-c5cncnc5)ccc34)cc2)CC1 [Compound 27, 1-N′-(4-Fluorophenyl)-1-N-[4-(7-pyrimidin-5-ylquinolin-4-yl)oxyphenyl]cyclopropane-1,1-dicarboxamide] | 10 to 100 | ≤ 10 |
| Cc1cc(F)cc(C)c1NC(=O)C1(C(=O)Nc2ccc(Oc3ccnc4cc(-c5cnn(C)c5)ccc34)cc2)CC1 [Compound 82, 1-N′-(4-Fluoro-2,6-dimethylphenyl)-1-N-[4-[7-(1-methylpyrazol-4-yl)quinolin-4-yl]oxyphenyl]cyclopropane-1,1-dicarboxamide] | 10 to 100 | 10 to 100 |
| Cn1ccc(-c2ccc3c(Oc4ccc(NC(=O)C5(C(=O)Nc6ccc(F)cc6)CC5)cc4)ccnc3c2)n1 [Compound 17, 1-N′-(4-Fluorophenyl)-1-N-[4-[7-(1-methylpyrazol-3-yl)quinolin-4-yl]oxyphenyl]cyclopropane-1,1-dicarboxamide] | 10 to 100 | ≤ 10 |

More lines, now with the values ahead:

| IC50 (Mer) [nM] | IC50 (Met) [nM] | Structure (SMILES) |
| --- | --- | --- |
| ≤ 10 | ≤ 10 | Cn1cc(-c2ccc3c(Oc4ccc(NC(=O)C5(C(=O)Nc6ccc(F)cc6)CC5)cc4)ccnc3c2)cn1 [Compound 11, 1-N′-(4-Fluorophenyl)-1-N-[4-[7-(1-methylpyrazol-4-yl)quinolin-4-yl]oxyphenyl]cyclopropane-1,1-dicarboxamide] |
| 10 to 100 | 10 to 100 | O=C(Nc1ccc(F)cc1)C1(C(=O)Nc2ccc(Oc3ccnc4cc(-c5cnn(CC(F)(F)F)c5)ccc34)cc2)CC1 [Compound 16, 1-N′-(4-Fluorophenyl)-1-N-[4-[7-[1-(2,2,2-trifluoroethyl)pyrazol-4-yl]quinolin-4-yl]oxyphenyl]cyclopropane-1,1-dicarboxamide] |
| ≤ 10 | ≤ 10 | O=C(Nc1ccc(F)cc1)C1(C(=O)Nc2ccc(Oc3ccnc4cc(-c5cnn(CCF)c5)ccc34)cc2)CC1 [Compound 14, 1-N-[4-[7-[1-(2-Fluoroethyl)pyrazol-4-yl]quinolin-4-yl]oxyphenyl]-1-N′-(4-fluorophenyl)cyclopropane-1,1-dicarboxamide] |
| 10 to 100 | ≤ 10 | O=C(Nc1ccc(F)cc1)C1(C(=O)Nc2ccc(Oc3ccnc4cc(-c5cnn(C(F)F)c5)ccc34)cc2)CC1 [Compound 13, 1-N-[4-[7-[1-(Difluoromethyl)pyrazol-4-yl]quinolin-4-yl]oxyphenyl]-1-N′-(4-fluorophenyl)cyclopropane-1,1-dicarboxamide] |
| ≤ 10 | ≤ 10 | O=C(Nc1ccc(F)cc1)C1(C(=O)Nc2ccc(Oc3ccnc4cc(-c5cnn(CC(F)F)c5)ccc34)cc2)CC1 [Compound 15, 1-N-[4-[7-[1-(2,2-Difluoroethyl)pyrazol-4-yl]quinolin-4-yl]oxyphenyl]-1-N′-(4-fluorophenyl)cyclopropane-1,1-dicarboxamide] |
| ≤ 10 | ≤ 10 | CN1CCC(n2cc(-c3ccc4c(Oc5ccc(NC(=O)C6(C(=O)Nc7ccc(F)cc7)CC6)cc5)ccnc4c3)cn2)CC1 [Compound 61, 1-N′-(4-Fluorophenyl)-1-N-[4-[7-[1-(1-methylpiperidin-4-yl)pyrazol-4-yl]quinolin-4-yl]oxyphenyl]cyclopropane-1,1-dicarboxamide] |
| ≤ 10 | ≤ 10 | O=C(Nc1ccc(F)cc1)C1(C(=O)Nc2ccc(Oc3ccnc4cc(-c5cnn(C6CC6)c5)ccc34)cc2)CC1 [Compound 22, 1-N-[4-[7-(1-Cyclopropylpyrazol-4-yl)quinolin-4-yl]oxyphenyl]-1-N′-(4-fluorophenyl)cyclopropane-1,1-dicarboxamide] |
